Assay results reported in US10864229B2, “Use of nitrite salts in chronic ischemia” (priority 2007, dated 2020).
Read-outs that look alike come from different tables or passages of the source.

Legend:
[1] = test system: mouse hind-limb ischemia model; assay: Laser Doppler hind-limb blood flow, chronic treatment in hind-limb ischemia model; assay type: in vivo, mouse (C57BL/6J)
Source text: (§1) Animals and Reagents. Unless otherwise stated, male wild type (C57BL/6J) mice weighing 20-25 gm and age 2-3 months were used. The mice were bred and housed at the Association for Assessment and Accreditation of Laboratory Animal Care, International-accredited LSUHSC-Shreveport animal resource facility and maintained according to the National Research Council's Guide for Care and Use of Laboratory Animals. All experimental protocols were approved by the LSU Institutional Animal Care and Use Committee. Sodium nitrite, sodium nitrate, phosphate buffered saline (PBS), and all other chemicals were purchased from Sigma Chemical (St. Louis, Mo.). Hind-Limb Ischemia Model. Hind limb ischemia was induced by ligating the left common femoral artery proximal to origin of profunda femoris artery according to Senthilkumar, A., Smith, R. D., Khitha, J., Arora, N., Veerareddy, S., Langston, W., Chidlow, J. H., Jr., Barlow, S. C., Teng, X., Patel, R. P., et al. 2007. Arterioscler Thromb Vase Biol 27:1947-1954. Mice were anesthetized with intraperitoneal injection of ketamine (100 mg/kg) and xylazine (8 mg/kg); surgery was performed […] aseptic conditions. The common femoral vein and femoral nerve were dissected away from the artery. Two ligatures were placed in the common femoral artery proximal to the profunda femoris artery and then transected between the two ligations. The incision was then closed and the ligation was immediately verified by laser Doppler measurement of tissue blood flow.
(§2) Laser Doppler measurements of tissue blood flow. The Vasamedics Laserflo BPM2 deep tissue penetrating laser doppler device was used to measure hind limb blood flow. The tip of laser probe was placed with stable positioning using a probe stand over the medial calf muscle of mice. Readings were recorded in ml of blood flow per 100 g tissue per minute from non-ischemic and ischemic limbs. Daily blood flow measurements were taken before the first nitrite or nitrate injection of a 24 hour period in order to obtain representative steady state changes in perfusion. Percent change in tissue blood flow was determined by dividing ischemic limb blood flow by non-ischemic limb blood flow and multiplied by 100. In a separate series of experiments, blood flow was also measured within 30 seconds after nitrite or nitrate administration to assess acute changes in blood flow.
We examined the effect of a range of sodium nitrite doses on ischemic tissue blood flow in the mouse hind-limb ischemia model described in Example 1. Sodium nitrite was administered via intraperitoneal injection twice a day in a dose range of 8.25-3,300 μg/kg; 15 mice were used per treatment group. Blood flow was measured according the laser Doppler method of Example 1. Changes in ischemic tissue perfusion were determined by measuring ischemic limb blood flow which was divided by the respective contra-lateral non-ischemic limb blood flow to calculate a percent change for each animal.

[2] = test system: mouse hind-limb ischemia model; assay: Vascular density (CD31/DAPI) of gastrocnemius muscle tissue; assay type: in vivo, mouse (C57BL/6J)
Source text: as §1
Arterioscler Thromb Vase Biol 27:1947-1954.

[3] = test system: endothelial cell proliferation in ischemic gastrocnemicus tissues; assay: Endothelial cell proliferation (Ki67 staining) in gastrocnemius tissue; assay type: in vivo, mouse (C57BL/6J); details: day 3
Source text: as §1
The effect of sodium nitrite on endothelial cell proliferation in ischemic gastrocnemicus tissues was analyzed in the hind-limb ischemia model of Example 1.

[4] = test system: mouse hind-limb ischemia model; assay type: in vivo, mouse (C57BL/6J)
Experimental: as §2
Stimulation of angiogenesis alone during chronic ischemia is generally insufficient for restoring tissue perfusion. Increased arteriogenesis through the recruitment and differentiation of smaller arterioles is important to supply newly formed microvasculature. Moreover, an acute increase in vascular shear stress due to increased blood flow is a critical mediator of arteriogenesis. We examined the effect of 165 μg/kg sodium nitrite on acute changes (30 sec) in ischemic and nonischemic tissue perfusion according to the method in Example 1. Ten mice were used per treatment group.

[5] = Experimental: (§3) Measurement of Nitrite, NO Metabolite, Tissue cGMP, and eNOS Protein Levels. Nitrite and tissue NO metabolite levels tissue (nitrosothiol, C- or N-nitroso compounds, or iron-nitrosyl proteins which are collectively referred to SNO+XNO) whether were measured using chemiluminescence techniques according to Lang, J. D., Jr., Teng, X., Chumley, P., Crawford, J. H., Isbell, T. S., Chacko, B. K., Liu, Y., Jhala, N., Crowe, D. R., Smith, A. B., et al. 2007. J Clin Invest. 117:2583-2591. Gastrocnemius muscle tissue cGMP levels were determined using the cGMP ELISA from Cayman Chemical (Ann Arbor, Mich.) according to the manufacturer's directions. Specimens were collected within 2 min after injection of either PBS or sodium nitrite. Total eNOS protein levels in hind-limb tissue were determined by Western blot analysis.
(§4) Analysis of blood and tissue nitrite levels in nitrate-treated and control animals was performed according to the method in Example 1.

eNOS protein = details: 165 μg/kg
Experimental: as §3, §4

SNO+XNO = details: 165 μg/kg
Experimental: as §3
The effect of nitrite treatment on levels of the NO metabolites, SNO and XNO was measure according to the method in Example 1. Twenty mice were used per treatment group.

cGMP = details: 165 μg/kg; day 3 or 7
Experimental: as §3

[6] = test system: mouse hind-limb ischemia model
Experimental: Vascular casting. Hind limb vascular casting of ischemic limbs was performed using Microfil silicone injection MV120. Before vascular casting, papaverine (5 ng/ml) and adenosine (1 mg/ml) were given intravenously to increase perfusion of the casting resin. Briefly, the abdominal aorta proximal to the femoral artery bifurcation was ligated with 5.0 silk suture material and cannulated caudal to the ligation using PESO tubing held in place with a silk ligature. 400 μl of Microfil was infused into the aortic catheter and allowed to set in situ for 16 hours at 4° C. Hind limb muscle tissue was cleared by incubating tissues in graded glycerol solutions of 40%, 60%, 80%, and 100% for 24 hours each. Vascular casts were subsequently photographed using a stereomicroscope.
To further evaluate arteriogenesis activity, we performed hind-limb ligations distal to the profunda femoris and proximal to the knee to more easily distinguish changes in the arterial supply. […] Arterial casts were made according to the method in Example 1.

[7] = test system: ischemic hind limb of C57BL/6J mice; details: 165 μg/kg single I.P. bolus 45 minutes after ligation; 7 day period
Experimental: Permanent femoral artery ligation was performed on the left hind limb of C57BL/6J mice (n=3 per treatment group) according to the method in Example 1. A single bolus injection of either PBS or sodium nitrite (165 μg/kg) was given I.P. 45 minutes after completing the ligation. Blood flow recovery was monitored every other day over a 7 day period to evaluate the efficacy of single bolus injection therapy. […] “Day 0 Pre” on the x-axis refers to blood flow on the day of ligation before the ligation was performed; “Day 0 Post” on the x-axis refers to blood flow on the day of ligation after the ligation was performed.

[8] = test system: ischemic hind limb of C57BL/6J mice; details: 165 μg/kg I.P. b.i.d. started day 5 post-ligation
Experimental: We also evaluated the effect of delaying chronic sodium nitrite treatment on restoration of hind limb blood flow. Permanent femoral artery ligation was performed on the left hind limb of C57BL/6J mice (n=6 per treatment group) as described in Example 1. […] Blood flow recovery was monitored throughout the study using deep tissue penetrating laser Doppler as described in Example 1. […] “Day 0 Pre” on the x-axis refers to blood flow on the day of ligation before the ligation was performed; “Day 0 Post” on the x-axis refers to blood flow on the day of ligation after the ligation was performed.

[9] = test system: ischemic hind limb of Db/Db diabetic mice
Experimental: We evaluated the effect of sodium nitrite treatment on ischemic hind limb blood flow in a diabetic mouse model. Permanent femoral artery ligation was performed on the left hind limb of Db/Db diabetic mice (n=5 per treatment group) according to the methods in Examples 1 and 2, except that the mice were anesthetized with 2% inhaled isofluorane. […] Blood flow recovery was monitored throughout the study using deep tissue penetrating laser Doppler according to the method in Example 1.

[10] = test system: excisional wounds in C57BL/6J mice; details: for percent wound surface remaining vs PBS-treated controls: 165 μg/kg I.P. b.i.d.
Experimental: Full thickness excisional wounds were created using a 4 mm punch biopsy device. C57BL/6J mice were anesthetized according to the method in Example 1. Wounds were created by pinching the loose skin and punching a half circle biopsy to obtain a uniform 4 mm diameter wound (n=4 per treatment group). […] Wound diameter was measured using digital calipers and plotted as the percent wound surface area remaining at each successive day.

CC1(C)N([O])C(c2ccc(C(=O)O)cc2)=[N+]([O-])C1(C)C [carboxy PTIO, 2-(4-Carboxyphenyl)-4,4,5,5-tetramethylimidazoline-1-oxyl-3-oxide, reference compound]
effect of NO scavenger on ability of sodium nitrite to restore ischemic limb blood flow ([1]; carboxy PTIO 1 mg/kg daily plus sodium nitrite 165 μg/kg): significantly attenuated
effect of cPTIO cotreatment on nitrite augmentation of angiogenesis in ischemic hind limbs ([2]; cPTIO plus sodium nitrite 165 μg/kg, days 3 and 7): prevented nitrite augmentation of angiogenesis
effect of cPTIO on nitrite-induced increase in Ki67 to CD31 colocalization ([3]; cPTIO plus sodium nitrite, ischemic tissue): blocked
effect of carboxy PTIO on nitrite-induced increase in Ki67 nuclear localization ([3]; carboxy PTIO plus sodium nitrite, ischemic tissue): blocked
effect of cPTIO on nitrite-dependent acute tissue blood flow change ([4]; mouse, in vivo): significantly blunted

O=[N+]([O-])[O-].[Na+] [sodium nitrate, reference compound]
ischemic limb blood flow ([1]; lowest dose 8.25 μg/kg, by days 5 and 7): augmented ischemic limb blood flow

O=NO [sodium nitrite]
temporal efficacy on ischemic blood flow compared to higher and lower doses ([1]; 165 μg/kg i.p. twice a day): optimal temporal efficacy
hind limb blood flow in the nonischemic limbs ([1]; 165 μg/kg i.p., nonischemic limb): neither PBS nor sodium nitrite altered
blood flow after injection in hind limbs ischemic for 24 h ([1]; 165 μg/kg injection): enhanced blood flow
percentage blood flow in ischemic hind limbs ([1]; 8.25, 16.5, 165 and 3,300 μg/kg i.p. twice a day, by day 3 post ligation, progressively increased by day 7, vs PBS): increased the percentage blood flow
endothelial staining of CD31 in ischemic muscle tissue ([2]; 165 μg/kg, day 7, compared to PBS or sodium nitrate controls): much more abundant
nonischemic tissue vascular density ([2]; 165 μg/kg, day 7, nonischemic gastrocnemius): did not significantly alter
vascular density of ischemic gastrocnemius muscle ([2]; 165 μg/kg, days 3 and 7, compared to PBS or sodium nitrate): significantly increased
augmentation of ischemic tissue vascular density, high dose vs low dose ([2]; 3,300 μg/kg compared to 165 μg/kg): less potent
Ki67 nuclear localization (colocalization with DAPI) ([3]; 165 μg/kg, ischemic tissue): significantly increased
Ki67 to CD31 colocalization ([3]; 165 μg/kg, ischemic tissue): significantly increased
Ki67 nuclear localization (colocalization with DAPI) ([3]; 165 μg/kg, non-ischemic tissue): but not non-ischemic tissues
blood levels of nitrite ([5]; 165 μg/kg chronic therapy, days 3 and 7): significantly decreased over time
tissue nitrite levels ([5]; 165 μg/kg, day 3, ischemic tissue): significantly increased
tissue nitrite levels, nitrite-treated vs PBS-treated ([5]; 165 μg/kg, day 7): did not differ significantly
eNOS protein expression (eNOS protein; day 3, ischemic hind-limb tissue): significantly decreased
eNOS protein expression (eNOS protein; day 3, nonischemic hind-limb tissue): without altering expression
eNOS protein expression (eNOS protein; day 7, ischemic tissue): no effect
eNOS protein expression (eNOS protein; day 7, nonischemic tissue): reduced
tissue SNO+XNO levels (SNO+XNO; day 3): Neither sodium nitrite (165 μg/kg) nor PBS significantly altered
SNO+XNO levels in ischemic tissue (SNO+XNO; day 7, compared to PBS): significantly increased
tissue cGMP levels (cGMP): neither 165 μg/kg sodium nitrite nor PBS significantly altered
acute blood flow change under chronic nitrite therapy ([4]; 165 μg/kg, days 3 and 7): lesser, yet still significant, increase
acute enhancement of ischemic tissue blood flow ([4]; mouse, in vivo): 92.3±18%
duration of increased blood flow after injection ([4]; mouse, in vivo): > 10 min
collateral vessels in arterial cast of ischemic limb ([6]; day 7, vascular casting): Numerous collateral vessels
number of arterial branch points ([6]; ligation distal to profunda femoris, vs PBS-treated controls): significantly greater
ischemic hind limb blood flow recovery after single bolus [7]: did not restore
ischemic hind limb blood flow recovery with delayed therapy [8]: restored
ischemic hind-limb blood flow recovery in diabetic mice ([9]; 165 μg/kg I.P. b.i.d. started post-ligation): restored
blood flow in ischemic hind limbs vs PBS-treated controls ([9]; 165 μg/kg I.P. b.i.d., all time points analyzed): significantly greater
blood flow in ischemic hind limbs relative to preligation ([9]; 165 μg/kg I.P. b.i.d., by the end of the study): approached preligation levels
excision wound healing ([10]; 165 μg/kg I.P. b.i.d. from wounding, 4 mm wound): enhanced
percent wound surface remaining vs PBS-treated controls ([10]; first six days of the study): significantly less
percent wound surface remaining vs PBS-treated controls ([10]; remaining four days): lower
